Laboratory results taken from PubChem BioAssay AID2060618 (Molecular Pharmacology Branch, DTP, NCI, 2025).

Tested on: 454973-116-R2-J3-PDC spheroids, percent test/control viability
Assay: Anticancer human tumor 454973-116-R2-J3-PDC patient-derived pancreatic carcinoma cell line growth inhibition [CLK]
Conditions: spheroids with HUVEC and MSC; for IC50: curve of first compound; for viability, T/C: stronger effect = lower value
Summary of the method: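 Multi-cell-type spheroids combined patient-derived tumor cells with HUVEC endothelial cells and human mesenchymal stem cells. Paired agents were dosed in half-log steps down from about clinical Cmax, or from 10 microM where Cmax was unknown.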

[1] = second compound 0.0316 µM, first compound 0.0316 µM
[2] = second compound 0.0316 µM, first compound 0.1 µM
[3] = second compound 0.0316 µM, first compound 0.316 µM
[4] = second compound 0.0316 µM, first compound 1 µM
[5] = second compound 0.0316 µM, first compound 3.16 µM
[6] = second compound 0.0316 µM, first compound 10 µM
[7] = second compound 0.1 µM, first compound 0.0316 µM
[8] = second compound 0.1 µM, first compound 0.1 µM
[9] = second compound 0.1 µM, first compound 0.316 µM
[10] = second compound 0.1 µM, first compound 1 µM
[11] = second compound 0.1 µM, first compound 3.16 µM
[12] = second compound 0.1 µM, first compound 10 µM
[13] = second compound 0.316 µM, first compound 0.0316 µM
[14] = second compound 0.316 µM, first compound 0.1 µM
[15] = second compound 0.316 µM, first compound 0.316 µM
[16] = second compound 0.316 µM, first compound 1 µM
[17] = second compound 0.316 µM, first compound 3.16 µM
[18] = second compound 0.316 µM, first compound 10 µM
[19] = second compound 1 µM, first compound 0.0316 µM
[20] = second compound 1 µM, first compound 0.1 µM
[21] = second compound 1 µM, first compound 0.316 µM
[22] = second compound 1 µM, first compound 1 µM
[23] = second compound 1 µM, first compound 3.16 µM
[24] = second compound 1 µM, first compound 10 µM
[25] = second compound 3.16 µM, first compound 0.0316 µM
[26] = second compound 3.16 µM, first compound 0.1 µM
[27] = second compound 3.16 µM, first compound 0.316 µM
[28] = second compound 3.16 µM, first compound 1 µM
[29] = second compound 3.16 µM, first compound 3.16 µM
[30] = second compound 3.16 µM, first compound 10 µM
[31] = second compound 10 µM, first compound 0.0316 µM
[32] = second compound 10 µM, first compound 0.1 µM
[33] = second compound 10 µM, first compound 0.316 µM
[34] = second compound 10 µM, first compound 1 µM
[35] = second compound 10 µM, first compound 3.16 µM
[36] = second compound 10 µM, first compound 10 µM
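Further: spheroids exposed to compounds for 7 days before readout.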

## CC(Nc1ccc2c(c1)OCCn1cc(N3C(=O)OCC3C(F)F)nc1-2)C(N)=O (stereo not drawn) + CNC(=O)c1ccc(Nc2nc(OC3CCCC3)c3c(-c4ccc5nc(C)oc5c4)c[nH]c3n2)c(OC)c1
Second compound 0.0316 µM
  IC50: > 10000 nM
Second compound 0.1 µM
  IC50: 5040 nM
Second compound 0.316 µM
  IC50: 467 nM
Second compound 1 µM
  IC50: < 31.6 nM
Second compound 3.16 µM
  IC50: < 31.6 nM
Second compound 10 µM
  IC50: < 31.6 nM
[1]
  viability, T/C: 98.4%
[2]
  viability, T/C: 79.5%
[3]
  viability, T/C: 80%
[4]
  viability, T/C: 70.7%
[5]
  viability, T/C: 67.9%
[6]
  viability, T/C: 46%
[7]
  viability, T/C: 96.8%
[8]
  viability, T/C: 86.4%
[9]
  viability, T/C: 74.9%
[10]
  viability, T/C: 59%
[11]
  viability, T/C: 58.6%
[12]
  viability, T/C: 43%
[13]
  viability, T/C: 54.8%
[14]
  viability, T/C: 54.4%
[15]
  viability, T/C: 55.6%
[16]
  viability, T/C: 41.2%
[17]
  viability, T/C: 36.8%
[18]
  viability, T/C: 30.3%
[19]
  viability, T/C: 31.1%
[20]
  viability, T/C: 26.9%
[21]
  viability, T/C: 22.5%
[22]
  viability, T/C: 19.7%
[23]
  viability, T/C: 16.9%
[24]
  viability, T/C: 13.5%
[25]
  viability, T/C: 23.5%
[26]
  viability, T/C: 26.3%
[27]
  viability, T/C: 23.5%
[28]
  viability, T/C: 21.5%
[29]
  viability, T/C: 14.7%
[30]
  viability, T/C: 13.5%
[31]
  viability, T/C: 24.3%
[32]
  viability, T/C: 22.8%
[33]
  viability, T/C: 21.1%
[34]
  viability, T/C: 19.7%
[35]
  viability, T/C: 13.3%
[36]
  viability, T/C: 11.1%

## COC1C=CCC(C)C(C)S(=O)(=O)NC(=O)c2ccc3c(c2)N(CC2CCC21)CC1(CCCc2cc(Cl)ccc21)CO3 (stereo not drawn) + CN1CCN(c2cc(C(=O)Nc3cc4cc(-c5cnn(C)c5)ccc4cn3)ccn2)CC1
Second compound 0.0316 µM
  IC50: 4900 nM
Second compound 0.1 µM
  IC50: 621 nM
Second compound 0.316 µM
  IC50: < 31.6 nM
Second compound 1 µM
  IC50: < 31.6 nM
Second compound 3.16 µM
  IC50: < 31.6 nM
Second compound 10 µM
  IC50: < 31.6 nM
[1]
  viability, T/C: 102%
[2]
  viability, T/C: 97.9%
[3]
  viability, T/C: 92.9%
[4]
  viability, T/C: 92.8%
[5]
  viability, T/C: 75.8%
[6]
  viability, T/C: 8.72%
[7]
  viability, T/C: 64.4%
[8]
  viability, T/C: 74.1%
[9]
  viability, T/C: 52.7%
[10]
  viability, T/C: 43.8%
[11]
  viability, T/C: 27.5%
[12]
  viability, T/C: 2.54%
[13]
  viability, T/C: 1.25%
[14]
  viability, T/C: 2.28%
[15]
  viability, T/C: 2.09%
[16]
  viability, T/C: 1.79%
[17]
  viability, T/C: 1.28%
[18]
  viability, T/C: 0.38%
[19]
  viability, T/C: 0.11%
[20]
  viability, T/C: 0.13%
[21]
  viability, T/C: 2.8%
[22]
  viability, T/C: 0.16%
[23]
  viability, T/C: 0.14%
[24]
  viability, T/C: 0.13%
[25]
  viability, T/C: 0.17%
[26]
  viability, T/C: 0.17%
[27]
  viability, T/C: 0.99%
[28]
  viability, T/C: 0.25%
[29]
  viability, T/C: 0.33%
[30]
  viability, T/C: 0.2%
[31]
  viability, T/C: 0.21%
[32]
  viability, T/C: 0.17%
[33]
  viability, T/C: 0.9%
[34]
  viability, T/C: 0.28%
[35]
  viability, T/C: 0.67%
[36]
  viability, T/C: 0.21%

## COc1ccc([C@@H](O)c2cc(-c3ncnc4cc(N5CCOCC5)ccc34)c(F)cc2Cl)nn1 + CN1CCN(c2cc(C(=O)Nc3cc4cc(-c5cnn(C)c5)ccc4cn3)ccn2)CC1
Second compound 0.0316 µM
  IC50: > 10000 nM
Second compound 0.1 µM
  IC50: 2720 nM
Second compound 0.316 µM
  IC50: < 31.6 nM
Second compound 1 µM
  IC50: < 31.6 nM
Second compound 3.16 µM
  IC50: < 31.6 nM
Second compound 10 µM
  IC50: < 31.6 nM
[1]
  viability, T/C: 93.8%
[2]
  viability, T/C: 107%
[3]
  viability, T/C: 101%
[4]
  viability, T/C: 90.8%
[5]
  viability, T/C: 73.5%
[6]
  viability, T/C: 54.9%
[7]
  viability, T/C: 74.8%
[8]
  viability, T/C: 79.1%
[9]
  viability, T/C: 71.5%
[10]
  viability, T/C: 66.5%
[11]
  viability, T/C: 47.4%
[12]
  viability, T/C: 28.6%
[13]
  viability, T/C: 1.76%
[14]
  viability, T/C: 1.85%
[15]
  viability, T/C: 2.44%
[16]
  viability, T/C: 1.05%
[17]
  viability, T/C: 1.4%
[18]
  viability, T/C: 2.15%
[19]
  viability, T/C: 0.11%
[20]
  viability, T/C: 0.11%
[21]
  viability, T/C: 2.22%
[22]
  viability, T/C: 0.08%
[23]
  viability, T/C: 0.07%
[24]
  viability, T/C: 0.06%
[25]
  viability, T/C: 0.09%
[26]
  viability, T/C: 0.15%
[27]
  viability, T/C: 0.16%
[28]
  viability, T/C: 0.14%
[29]
  viability, T/C: 0.11%
[30]
  viability, T/C: 0.72%
[31]
  viability, T/C: 2.12%
[32]
  viability, T/C: 0.13%
[33]
  viability, T/C: 0.29%
[34]
  viability, T/C: 0.16%
[35]
  viability, T/C: 0.99%
[36]
  viability, T/C: 0.16%

## Cn1ncnc1[C@H]1c2n[nH]c(=O)c3cc(F)cc(c23)N[C@@H]1c1ccc(F)cc1 + CN1CCN(c2cc(C(=O)Nc3cc4cc(-c5cnn(C)c5)ccc4cn3)ccn2)CC1
Second compound 0.0316 µM
  IC50: > 100 nM
Second compound 0.1 µM
  IC50: > 100 nM
Second compound 0.316 µM
  IC50: < 0.316 nM
Second compound 1 µM
  IC50: < 0.316 nM
Second compound 3.16 µM
  IC50: < 0.316 nM
Second compound 10 µM
  IC50: < 0.316 nM
Second compound 0.0316 µM, first compound 0.000316 µM
  viability, T/C: 93.9%
Second compound 0.0316 µM, first compound 0.001 µM
  viability, T/C: 99%
Second compound 0.0316 µM, first compound 0.00316 µM
  viability, T/C: 90.5%
Second compound 0.0316 µM, first compound 0.01 µM
  viability, T/C: 92.9%
[1]
  viability, T/C: 91.2%
[2]
  viability, T/C: 85%
Second compound 0.1 µM, first compound 0.000316 µM
  viability, T/C: 75.4%
Second compound 0.1 µM, first compound 0.001 µM
  viability, T/C: 75%
Second compound 0.1 µM, first compound 0.00316 µM
  viability, T/C: 83.2%
Second compound 0.1 µM, first compound 0.01 µM
  viability, T/C: 71.3%
[7]
  viability, T/C: 59.1%
[8]
  viability, T/C: 50.1%
Second compound 0.316 µM, first compound 0.000316 µM
  viability, T/C: 1.91%
Second compound 0.316 µM, first compound 0.001 µM
  viability, T/C: 2.28%
Second compound 0.316 µM, first compound 0.00316 µM
  viability, T/C: 3.23%
Second compound 0.316 µM, first compound 0.01 µM
  viability, T/C: 4.91%
[13]
  viability, T/C: 2.64%
[14]
  viability, T/C: 2.84%
Second compound 1 µM, first compound 0.000316 µM
  viability, T/C: 0.1%
Second compound 1 µM, first compound 0.001 µM
  viability, T/C: 1.11%
Second compound 1 µM, first compound 0.00316 µM
  viability, T/C: 0.09%
Second compound 1 µM, first compound 0.01 µM
  viability, T/C: 0.08%
[19]
  viability, T/C: 0.09%
[20]
  viability, T/C: 0.1%
Second compound 3.16 µM, first compound 0.000316 µM
  viability, T/C: 0.09%
Second compound 3.16 µM, first compound 0.001 µM
  viability, T/C: 0.12%
Second compound 3.16 µM, first compound 0.00316 µM
  viability, T/C: 0.1%
Second compound 3.16 µM, first compound 0.01 µM
  viability, T/C: 1.05%
[25]
  viability, T/C: 1.67%
[26]
  viability, T/C: 0.12%
Second compound 10 µM, first compound 0.000316 µM
  viability, T/C: 0.11%
Second compound 10 µM, first compound 0.001 µM
  viability, T/C: 0.16%
Second compound 10 µM, first compound 0.00316 µM
  viability, T/C: 0.17%
Second compound 10 µM, first compound 0.01 µM
  viability, T/C: 0.29%
[31]
  viability, T/C: 0.12%
[32]
  viability, T/C: 0.14%
